Where two headings read alike, the source gives them in different places.
Experiments:
[1] = tested on: splicing of Ad2.1 pre-mRNA in HeLa nuclear extract; experiment: In vitro splicing (IVS), qPCR readout, Ad2.1 substrate; format: biochemical
Method: (§1) To evaluate payload activity in a cell-free system, an in vitro splicing assay was performed. The payloads were incubated with nuclear extracts and pre-mRNA substrate minigenes.
(§2) HeLa nuclear extract preparation: HeLa S3 cell pellets were resuspended in hypotonic buffer (10 mM HEPES pH 7.9, 1.5 mM MgCl2, 10 mM KCl, 0.2 mM PMSF, 0.5 mM DTT) and the suspension was brought up to a total of 5 packed cell volume (PCV). After centrifugation, the supernatant was discarded, and the cells were brought up to 3 PCV with hypotonic buffer and incubated on ice for 10 min. Cells were lysed using a dounce homogenizer and then centrifuged. The supernatant was discarded, and the pellet was resuspended with ½ packed nuclear volume (PNV) of low salt buffer (20 mM HEPES pH 7.9, 1.5 mM MgCl2, 20 mM KCl, 0.2 mM EDTA, 25% glycerol, 0.2 mM PMSF, 0.5 mM DTT), followed by ½ PNV of high salt buffer (same as low salt buffer except 1.4 M KCl). The nuclei were gently mixed for 30 min before centrifuging. The supernatant (nuclear extract) was then dialyzed into storage buffer (20 mM HEPES pH 7.9, 100 mM KCl, 0.2 mM EDTA, 20% glycerol, 0.2 mM PMSF, 0.5 mM DTT). Protein concentration was determined using NanoDrop 8000 UV-Vis spectrophotometer (ThermoFisher Scientific). […]

[2] = tested on: splicing of Ad2.2 pre-mRNA in HeLa nuclear extract; experiment: In vitro splicing (IVS), qPCR readout, Ad2.2 substrate; format: biochemical
Method: as §1, §2

MM1.R cells = experiment: CellTiter-Glo cell viability, MM1.R; format: cell-based, human; details: for GI50: Homo sapiens, MM.1R
NCI-H929 cells = experiment: CellTiter-Glo cell viability, NCI-H929 (normal serum); format: cell-based, human; details: for GI50: Homo sapiens
LP-1 cells = experiment: 6-day CellTiter-Glo cell viability, LP-1; format: cell-based, human
U266B1 cells = experiment: 6-day CellTiter-Glo cell viability, U266B1; format: cell-based, human
Caco-2 permeability = format: in vitro ADME; details: human
Method: Caco-2 cells were cultured for 21 days in transwell 24-well plates at 37° C., 95% humidity, 5% CO2. Integrity of cell monolayer was confirmed by TEER (transepithelial electrical resistance) and Lucifer yellow. Payloads were spiked in duplicate at 10 μM, separately, on both sides of the cell monolayer. Permeability rates from the apical to basolateral (A-B) direction and the basolateral to apical (B-A) direction were determined by sampling aliquots from both chambers immediately after treatment (t=0) and following incubation for 2 hours. Samples were protein precipitated with organic solvent containing internal standard and analyzed by LC-MS/MS (SCIEX; API 5500). The area ratio responses of payload/internal standard over time in both directions were used to generate permeability (cm/sec) values. Efflux ratio was calculated by dividing B-A/A-B. Control compounds for low and high permeability and efflux behaved as expected.

`CC[C@H](O)[C@@H](C)[C@H]1O[C@@H]1C[C@@](C)(O)/C=C/C=C(\C)[C@H]1OC(=O)C[C@H](O)CC[C@@](C)(O)[C@@H](OC(=O)N2CCNCC2)/C=C/[C@@H]1C` [D1, (2S,3S,6S,7R,10R,E)-7,10-dihydroxy-2-((R,2E,4E)-6-hydroxy-7-((2R,3R)-3-((2R,3S)-3-hydroxypentan-2-yl)oxiran-2-yl)-6-methylhepta-2,4-dien-2-yl)-3,7-dimethyl-12-oxooxacyclododec-4-en-6-yl piperazine-1-carboxylate] showed an IC50 [1] of 16.5 nM, an IC50 [2] of 25 nM and a GI50 (MM1.R cells; 96 h, read-out: CTGlo Mean GI50 MM1.R 96 h) of 147 nM. For the same molecule, the GI50 (MM1.R cells; 144 h) was 89.3 nM, the “AUC (nM * % relative viability)” value (MM1.R cells; MM1R cells, 6 days) was 640.2408 nM * % relative viability and the LD50 (MM1.R cells; MM1R cells, 6 days, CellTiter-Glo) was 283.0093 nM. The RminAve (MM1.R cells; MM1R cells, 6 days, negative = cell death vs T0) was −99.9109%, the “CTGlo Mean LD50 MM1.R 96 h” value (MM1.R cells; payload alone, MM1.R, 96 h) was 510.8 nM and the GI50 (NCI-H929 cells; NCI-H929, 96 h, read-out: CTGlo Mean GI50 H929 96 h) was 75.5 nM. The GI50 (NCI-H929 cells; NCI-H929, 144 h) was 119 nM, the “AUC (nM * % relative viability)” value (NCI-H929 cells; NCIH929 cells, 6 days) was 646.6007 nM * % relative viability and the LD50 (NCI-H929 cells; NCIH929 cells, 6 days, CellTiter-Glo) was 246.6292 nM. For the same molecule, the RminAve (NCI-H929 cells; NCIH929 cells, 6 days, negative = cell death vs T0) was −99.8009%, the “CTGlo Mean LD50 H929 96 h” value (NCI-H929 cells; payload alone, H929, 96 h) was 201 nM and the GI50 (LP-1 cells; Homo sapiens, LP-1, 144 h) was 112 nM. For the same molecule, the “AUC (nM * % relative viability)” value (LP-1 cells; LP1 cells, 6 days) was 643.9226 nM * % relative viability, the LD50 (LP-1 cells; LP1 cells, 6 days, CellTiter-Glo) was 234.5168 nM and the RminAve (LP-1 cells; LP1 cells, 6 days, negative = cell death vs T0) was −99.7195%. The GI50 (U266B1 cells; Homo sapiens, 144 h) was 238 nM, the “AUC (nM * % relative viability)” value (U266B1 cells; U266B1 cells, 6 days) was 712.6903 nM * % relative viability and the LD50 (U266B1 cells; U266B1 cells, 6 days, CellTiter-Glo) was 504.8119 nM. It also gave a RminAve (U266B1 cells; U266B1 cells, 6 days, negative = cell death vs T0) of −94.2191%, an efflux ratio at 2 h, 10 μM (Caco-2 permeability; B-A/A-B) of 1.5 and a Papp A→B at 2 h, 10 μM (Caco-2 permeability; apical to basolateral, 10 μM, 2 hours, read-out: Permeability, Mean, Caco-2 A-B Perm) of 0.2 ×10⁻⁶ cm/s. It also gave a Papp B→A at 2 h, 10 μM (Caco-2 permeability; basolateral to apical, 10 μM, 2 hours, read-out: Permeability, Mean, Caco-2 B-A Perm) of 0.3 ×10⁻⁶ cm/s.

From US12043670B2, “Anti-BCMA antibody-drug conjugates and methods of use” (Eisai R&D Management Co., Ltd., priority 2020, dated 2024)
